Assays:
[1] = molecular target: T1, Amine oxidase [flavin-containing] A (Homo sapiens, UniProt P21397); assay: Inhibition of human recombinant MAO-A assessed as inhibition of production of hydrogen peroxide at 100 uM after 15 mins by the Amplex Red fluorimetric method
T1 sequence (P21397 whole entry): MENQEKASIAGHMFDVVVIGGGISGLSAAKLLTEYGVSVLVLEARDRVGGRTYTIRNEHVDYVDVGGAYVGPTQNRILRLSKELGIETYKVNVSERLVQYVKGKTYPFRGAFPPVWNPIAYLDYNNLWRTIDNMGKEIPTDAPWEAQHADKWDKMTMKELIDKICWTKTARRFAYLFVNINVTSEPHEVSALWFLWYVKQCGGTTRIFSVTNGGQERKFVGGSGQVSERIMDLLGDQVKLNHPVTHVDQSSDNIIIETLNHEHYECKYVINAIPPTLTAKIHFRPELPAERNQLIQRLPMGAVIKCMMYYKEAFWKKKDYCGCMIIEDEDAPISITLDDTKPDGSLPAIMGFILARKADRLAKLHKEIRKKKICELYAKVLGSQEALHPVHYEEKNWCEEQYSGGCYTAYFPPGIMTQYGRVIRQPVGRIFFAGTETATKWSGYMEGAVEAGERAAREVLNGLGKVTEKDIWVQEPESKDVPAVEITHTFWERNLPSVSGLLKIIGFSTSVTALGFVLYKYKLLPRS

[2] = molecular target: T2, Amine oxidase [flavin-containing] B (Homo sapiens, UniProt P27338); assay: Inhibition of human recombinant MAO-B assessed as inhibition of production of hydrogen peroxide at 100 uM after 15 mins by the Amplex Red fluorimetric method
T2 sequence (P27338 whole entry): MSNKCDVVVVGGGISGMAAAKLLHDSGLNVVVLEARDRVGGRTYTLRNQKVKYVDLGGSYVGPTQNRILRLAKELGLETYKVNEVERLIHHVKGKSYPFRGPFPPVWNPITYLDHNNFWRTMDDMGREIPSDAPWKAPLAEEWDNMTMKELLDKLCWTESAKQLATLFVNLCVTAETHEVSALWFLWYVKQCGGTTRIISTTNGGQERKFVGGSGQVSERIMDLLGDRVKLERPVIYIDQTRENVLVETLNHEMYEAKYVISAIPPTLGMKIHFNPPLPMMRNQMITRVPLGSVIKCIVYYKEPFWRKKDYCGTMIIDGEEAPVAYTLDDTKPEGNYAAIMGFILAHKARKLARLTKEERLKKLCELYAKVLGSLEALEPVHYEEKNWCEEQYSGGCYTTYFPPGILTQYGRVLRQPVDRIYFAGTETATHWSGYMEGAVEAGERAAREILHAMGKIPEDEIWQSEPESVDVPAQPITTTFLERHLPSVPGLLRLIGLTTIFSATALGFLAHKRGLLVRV

[3] = molecular target: T2, Amine oxidase [flavin-containing] B; assay: Inhibition of human recombinant MAO-B assessed as inhibition of production of hydrogen peroxide at 1 mM after 15 mins by the Amplex Red fluorimetric method

IC50 [1] | IC50 [2] | Compound | IC50 [3]
Not Active | – | O=C(O)c1coc2ccccc2c1=O | –
Not Active | Not Active | O=C(O)c1cc(=O)c2ccccc2o1 [CHROMOCARB] | –
– | – | O=C(NCCN1CCOCC1)c1ccc(Cl)cc1 [MOCLOBEMIDE] | Not Active

— ChEMBL document CHEMBL1158559, “Chromone-2- and -3-carboxylic acids inhibit differently monoamine oxidases A and B” (Bioorg Med Chem Lett, 2010)
